# Assay results reported in publication PMC2737711 (The Journal of neuroscience : the official journal of the …, 2009).
# Assays:
# C. elegans KCC-2 = biological target: T1, C. elegans KCC-2 (Caenorhabditis elegans, UniProt G5EEC9); assay: […] influx into Xenopus oocytes; assay type: cell-based
# T1 sequence (G5EEC9 1-1079): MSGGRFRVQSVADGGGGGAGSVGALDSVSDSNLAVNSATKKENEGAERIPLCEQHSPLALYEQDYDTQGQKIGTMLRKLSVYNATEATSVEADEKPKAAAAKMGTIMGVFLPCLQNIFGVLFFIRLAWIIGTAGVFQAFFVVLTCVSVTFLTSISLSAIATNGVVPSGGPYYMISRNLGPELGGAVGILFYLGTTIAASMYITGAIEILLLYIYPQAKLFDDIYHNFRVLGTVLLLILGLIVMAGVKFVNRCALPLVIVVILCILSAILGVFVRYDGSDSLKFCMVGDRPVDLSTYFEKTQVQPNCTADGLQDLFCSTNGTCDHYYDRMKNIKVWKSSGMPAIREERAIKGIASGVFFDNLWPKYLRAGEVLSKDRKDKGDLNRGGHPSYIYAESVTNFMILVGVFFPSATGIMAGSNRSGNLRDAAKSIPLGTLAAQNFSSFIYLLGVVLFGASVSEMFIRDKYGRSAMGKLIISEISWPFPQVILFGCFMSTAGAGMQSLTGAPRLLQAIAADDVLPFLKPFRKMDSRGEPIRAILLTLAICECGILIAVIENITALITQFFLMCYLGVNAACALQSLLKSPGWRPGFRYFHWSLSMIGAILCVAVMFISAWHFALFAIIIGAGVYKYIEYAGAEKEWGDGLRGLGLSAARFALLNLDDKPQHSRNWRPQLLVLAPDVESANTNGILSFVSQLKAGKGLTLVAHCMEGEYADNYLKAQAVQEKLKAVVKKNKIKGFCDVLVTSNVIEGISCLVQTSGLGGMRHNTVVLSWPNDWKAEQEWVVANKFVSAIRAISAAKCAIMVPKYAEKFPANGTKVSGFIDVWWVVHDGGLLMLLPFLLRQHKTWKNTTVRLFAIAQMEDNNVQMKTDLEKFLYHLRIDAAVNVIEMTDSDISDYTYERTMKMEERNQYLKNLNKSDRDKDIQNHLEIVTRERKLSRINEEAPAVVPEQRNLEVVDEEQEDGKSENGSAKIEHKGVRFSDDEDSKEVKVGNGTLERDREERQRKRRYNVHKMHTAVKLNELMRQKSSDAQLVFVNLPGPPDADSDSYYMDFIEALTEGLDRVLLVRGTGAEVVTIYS
# rat KCC2 = biological target: T2, rat KCC2 (Rattus norvegicus, UniProt Q63633); assay: […] influx into Xenopus oocytes; assay type: cell-based; settings: hypotonic medium, 79 mM chloride, 2 mM RbCl; 0.01 mM ouabain; inhibitor
# T2 sequence (Q63633 1-1139): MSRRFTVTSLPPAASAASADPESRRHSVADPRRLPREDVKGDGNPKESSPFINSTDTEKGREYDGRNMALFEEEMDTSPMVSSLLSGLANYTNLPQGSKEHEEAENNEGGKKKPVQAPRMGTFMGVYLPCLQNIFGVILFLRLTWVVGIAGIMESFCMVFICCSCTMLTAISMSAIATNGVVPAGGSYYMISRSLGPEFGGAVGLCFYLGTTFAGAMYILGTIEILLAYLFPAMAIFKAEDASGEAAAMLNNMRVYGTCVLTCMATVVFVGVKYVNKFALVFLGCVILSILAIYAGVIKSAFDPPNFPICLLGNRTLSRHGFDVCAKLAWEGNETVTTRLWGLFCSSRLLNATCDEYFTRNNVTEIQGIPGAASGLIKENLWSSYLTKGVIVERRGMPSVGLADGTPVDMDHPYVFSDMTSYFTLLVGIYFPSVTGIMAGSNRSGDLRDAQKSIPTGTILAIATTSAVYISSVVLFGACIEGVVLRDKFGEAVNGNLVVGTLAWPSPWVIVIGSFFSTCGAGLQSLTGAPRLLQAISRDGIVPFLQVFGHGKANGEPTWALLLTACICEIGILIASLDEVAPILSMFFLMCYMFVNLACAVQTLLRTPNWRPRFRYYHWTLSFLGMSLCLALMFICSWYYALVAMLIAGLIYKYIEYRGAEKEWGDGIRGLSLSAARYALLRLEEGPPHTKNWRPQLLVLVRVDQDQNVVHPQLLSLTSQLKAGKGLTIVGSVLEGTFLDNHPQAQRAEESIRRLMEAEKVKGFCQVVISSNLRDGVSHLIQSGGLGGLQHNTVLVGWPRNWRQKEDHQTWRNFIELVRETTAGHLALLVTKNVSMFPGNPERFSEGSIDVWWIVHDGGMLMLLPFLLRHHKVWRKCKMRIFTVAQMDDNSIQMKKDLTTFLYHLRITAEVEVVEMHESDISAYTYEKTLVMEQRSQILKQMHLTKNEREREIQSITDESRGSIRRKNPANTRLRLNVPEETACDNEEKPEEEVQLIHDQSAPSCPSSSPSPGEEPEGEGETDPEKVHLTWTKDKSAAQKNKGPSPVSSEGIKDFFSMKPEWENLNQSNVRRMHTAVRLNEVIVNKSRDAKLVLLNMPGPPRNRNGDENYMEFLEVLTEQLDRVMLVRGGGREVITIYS
structure (smiles),measurement,setting,value
CCCCNc1cc(C(=O)O)cc(S(N)(=O)=O)c1Oc1ccccc1 [bumetanide],IC50,C. elegans KCC-2,32 ± 3 µM
same,IC50,rat KCC2,72 ± 16 µM
